Results on 51 molecules are retold here after patent US20160318933A1, “FUSED PYRAZOLE DERIVATIVE” (SUMITOMO DAINIPPON PHARMA CO., LTD., priority 2013, published 2016).

Molecules are shown by their SMILES. pEC50: −log10 of the molar value.

What is called pEC50 is the negative decadic logarithm of the EC50, by convention in mol/L.

The experiment addresses T1, human brain-derived dopamine D4 receptor (Homo sapiens, UniProt P21917).
T1 construct: expressed in transfected cells; host or cells: CHO (CHO-K1) or HEK293 cells
T1 sequence (P21917 1-419): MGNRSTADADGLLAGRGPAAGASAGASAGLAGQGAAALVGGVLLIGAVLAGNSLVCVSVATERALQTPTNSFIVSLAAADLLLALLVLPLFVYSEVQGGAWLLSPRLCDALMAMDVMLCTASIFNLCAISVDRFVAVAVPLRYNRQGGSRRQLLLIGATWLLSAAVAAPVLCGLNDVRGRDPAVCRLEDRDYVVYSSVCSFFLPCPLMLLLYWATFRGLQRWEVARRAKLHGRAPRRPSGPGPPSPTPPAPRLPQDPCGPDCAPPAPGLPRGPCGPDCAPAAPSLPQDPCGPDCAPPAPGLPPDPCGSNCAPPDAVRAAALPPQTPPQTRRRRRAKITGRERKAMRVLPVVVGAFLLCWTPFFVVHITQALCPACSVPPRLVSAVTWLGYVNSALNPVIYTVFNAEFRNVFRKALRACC
Kind of experiment: Agonistic activity in G protein dependent pathway of dopamine D4 receptor (aequorin intracellular calcium luminescence, FDSS). The following applies: for pEC50: concentration required to achieve a 50% response of Emax, CHO-K1 or HEK293 cells transfected with D4 receptor; for Emax: read-out: Maximal activity on D4 receptor (%). The format is cell-based. The source says: The G protein dependent pathway is a pathway for transmitting signals in cells via a second messenger by stimulating a G protein through the binding of guanosine triphosphate (GTP) to the G protein. When GPCRs are activated by the binding of a ligand, a G protein binds to the GPCRs, and thereby GTP binds to a Gα subunit that is one of G protein subunits and a Gγβ subunit is dissociated. The activated Gα subunit regulates intracellular cAMP levels by the activation or inhibition of an adenylate cyclase, and regulates intracellular calcium levels by the activation of phospholipase C to transmit signals in cells.
The agonistic activities of the present compounds in the G protein dependent pathway were evaluated on the basis of intracellular calcium levels as follows. CHO-K1 or HEK293 cell lines transfected with D4 receptor genes were seeded in a 384-well plate, and incubated in a CO2 incubator at 37° C. for 24 hours, and then a solution of the present compound in DMSO was added into cells preloaded with coelenterazine to measure the change in luminescent signals with a FDSS (Hamamatsu Photonics K.K.). […] The agonistic activity of the present compound was calculated according to the measured luminescent signals, as the maximal activity (Emax) of the present compound. EC50 value was calculated as the concentration of the present compound required to achieve a 50% response of Emax.
In general terms: Calcium assays in cells follow changes in intracellular calcium, usually with a dye or a luminescent sensor.

For `Cc1ccc(CN2CCn3nc(-c4ncccc4C)c(Cl)c3C2)nc1` [Example 106, 3-Chloro-2-(3-methylpyridin-2-yl)-5-[(5-methylpyridin-2-yl)methyl]-4,5,6,7-tetrahydropyrazolo[1,5-a]pyrazine], the pEC50 was 7.18 and the Emax was 94%.
Consider `Cc1ccc(CN2CCn3nc(-c4ncccc4C)cc3C2)nc1` [Example 107], for which the pEC50 is 7.89 and the Emax was found to be 61%.
For the molecule `Cc1c(-c2ccccn2)nn2c1CN(Cc1ccc(C(F)(F)F)cn1)CC2` [Example 108], the pEC50 is 9.00 and the Emax is 66%.
Consider `Cc1ccc(CN2CCn3nc(-c4ncccc4F)cc3C2)nc1` [Example 109], for which the pEC50 was 7.44 and the Emax came out at 68%.
Taken in the same sequence, the figures for `Cc1ccc(CN2CCn3nc(-c4ccccn4)c(C)c3C2)nc1` [Example 110] were 7.74 and 99%.
The matching figures for `Cc1ccncc1CN1CCn2nc(-c3ncccc3C)cc2C1` [Example 111]: 6.80 and 22%.
As for `Cc1cccnc1-c1cc2n(n1)CCN(Cc1ccc3c(n1)CCCC3)C2` [Example 112], the pEC50 was 7.39 and the Emax was 66%.
Taken in the same sequence, the figures for `Cc1ccc(CN2CCn3nc(-c4ncccc4C)c(C)c3C2)nc1` [Example 114] were 7.19 and 93%.
The matching figures for `Cc1cccc(CN2CCn3nc(-c4ncccc4C)c(C)c3C2)n1` [Example 115]: 7.24 and 105%.
In the case of `Cc1cccnc1-c1nn2c(c1C)CN(Cc1ccc(C(F)(F)F)nc1)CC2` [Example 117], the pEC50 is 6.62 and the Emax was determined as 51%.
For `Cc1cccnc1-c1nn2c(c1C)CN(Cc1ccc(C(F)(F)F)cn1)CC2` [Example 118], the pEC50 is 6.97 and the Emax amounted to 59%.
Consider `Cc1cnc(CN2CCn3nc(-c4ncccc4C)c(C)c3C2)cn1` [Example 119], for which the pEC50 was 6.84 and the Emax is 71%.
Taken in the same sequence, the figures for `Cc1ccc(CN2CCn3nc(-c4ncccc4F)c(C)c3C2)nc1` [Example 120] were 7.64 and 98%.
The matching figures for `Cc1ccc(CN2CCn3nc(-c4ncccc4F)c(C)c3C2)cn1` [Example 121]: 7.34 and 84%.
Taken in the same sequence, the figures for `Cc1cccnc1-c1cc2n(n1)CCN(Cc1ccc(CF)nc1)C2` [Example 122] were 7.30 and 47%.
As to `Cc1cccnc1-c1cc2n(n1)CCN(Cc1ccc(CF)cn1)C2` [Example 123], the pEC50 is 7.49 and the Emax was 65%.
Taken in the same sequence, the figures for `Cc1c(-c2ncccc2F)nn2c1CN(Cc1ccc3c(n1)CCCC3)CC2` [Example 124] were 7.33 and 76%.
Taken in the same sequence, the figures for `Cc1c(-c2ncccc2F)nn2c1CN(Cc1ccc3c(n1)CCC3)CC2` [Example 125] were 7.89 and 98%.
Taken in the same sequence, the figures for `Cc1cccc(CN2CCn3nc(-c4ncccc4F)c(C)c3C2)n1` [Example 126] were 7.96 and 91%.
As to `Cc1c(-c2ncccc2F)nn2c1CN(Cc1ccc(C(F)(F)F)nc1)CC2` [Example 127], the pEC50 was 7.25 and the Emax turned out to be 89%.
Taken in the same sequence, the figures for `Fc1cccnc1-c1cc2n(n1)CCN(Cc1ccc3c(n1)CCCC3)C2` [Example 130] were 7.70 and 71%.
For the molecule `Cc1ccc(CN2CCn3nc(-c4ncccc4C)cc3C2)nc1C` [Example 131], the pEC50 was 7.66 and the Emax is 66%.
The matching figures for `Cc1cccnc1-c1cc2n(n1)CCN(Cc1ccc(C(F)F)cn1)C2` [Example 133]: 8.30 and 47%.
For the molecule `Cc1c(-c2ccccn2)nn2c1CN(Cc1ccc(CF)nc1)CC2` [Example 134], the pEC50 was 7.38 and the Emax was 62%.
As for `Cc1cccnc1-c1cc2n(n1)CCN(Cc1ccc(F)c(C)n1)C2` [Example 135], the pEC50 was 7.31 and the Emax is 54%.
As to `Cc1cccnc1-c1cc2n(n1)CCN(Cc1cc3c(cn1)OCCC3)C2` [Example 136], the pEC50 was 7.20 and the Emax was 52%.
For the molecule `Cc1cccnc1-c1cc2n(n1)CCN(Cc1cccc(CF)n1)C2` [Example 137], the pEC50 was 8.00 and the Emax is 82%.
Take `Cc1cccnc1-c1cc2n(n1)CCN(Cc1ccc(C(F)F)nc1)C2` [Example 138]: the pEC50 was 7.30 and the Emax turned out to be 49%.
`Cc1nc(CN2CCn3nc(-c4ncccc4C)cc3C2)cs1` [Example 139]: the pEC50 is 9.22 and the Emax amounted to 56%.
With `FC(F)(F)c1cccnc1-c1cc2n(n1)CCN(Cc1ccccc1)C2` [Example 140, 5-Benzyl-2-[3-(trifluoromethyl)pyridin-2-yl]-4,5,6,7-tetrahydropyrazolo[1,5-a]pyrazine], the pEC50 was 7.07 and the Emax was found to be 85%.
The matching figures for `Cc1ncc(CN2CCn3nc(-c4ccccn4)c(F)c3C2)c(N)n1` [Example 141]: 7.06 and 56%.
Taken in the same sequence, the figures for `Cc1ncc(CN2CCn3nc(-c4ccccn4)c(C)c3C2)c(N)n1` [Example 142] were 7.17 and 82%.
With `Cc1cccnc1-c1cc2n(n1)CCN(Cc1ccc(C(F)(F)F)nc1)C2` [Example 143, 2-(3-Methylpyridin-2-yl)-5-{[6-(trifluoromethyl)pyridin-3-yl]methyl}-4,5,6,7-tetrahydropyrazolo[1,5-a]pyrazine], the pEC50 was 7.10 and the Emax came out at 48%.
`Cc1cccnc1-c1cc2n(n1)CCN(Cc1cc3ccccc3[nH]1)C2` [Example 145]: the pEC50 was 7.35 and the Emax was found to be 52%.
Taken in the same sequence, the figures for `Cc1cccnc1-c1cc2n(n1)CCN(Cc1cc3ccccc3n1C)C2` [Example 146] were 7.05 and 48%.
On to `Cc1cccnc1-c1cc2n(n1)CCN(Cc1c[nH]c3ccccc13)C2` [Example 147], for which the pEC50 was 7.48 and the Emax came to 59%.
Taken in the same sequence, the figures for `Cc1cccnc1-c1cc2n(n1)CCN(Cc1cn(C)c3ccccc13)C2` [Example 148] were 7.33 and 71%.
As for `Cc1cccnc1-c1cc2n(n1)CCN(Cc1c3ccccc3nn1C)C2` [Example 149], the pEC50 is 6.97 and the Emax was 53%.
Taken in the same sequence, the figures for `Cn1c(CN2CCn3nc(-c4ncccc4F)cc3C2)cc2ccccc21` [Example 150] were 7.42 and 71%.
Consider `Nc1ncc(CN2CCn3nc(-c4ncccc4F)cc3C2)cn1` [Example 151], for which the pEC50 was 6.99 and the Emax came to 69%.
`Cc1cccc(CN2CCn3nc(-c4ncccc4C(F)(F)F)cc3C2)n1` [Example 152]: the pEC50 was 6.97 and the Emax came out at 74%.
Taken in the same sequence, the figures for `Cn1nc(CN2CCn3nc(-c4ncccc4C(F)(F)F)cc3C2)c2ccccc21` [Example 153] were 7.03 and 57%.
Taken in the same sequence, the figures for `Cc1cnc(CN2CCn3nc(-c4ncccc4C)cc3C2)cn1` [Example 154] were 7.00 and 57%.
Taken in the same sequence, the figures for `Cc1cccc(CN2CCn3nc(-c4ncccc4C)cc3C2)n1` [Example 156] were 7.26 and 70%.
`Cc1cccnc1-c1cc2n(n1)CCN(Cc1ccc(CO)cn1)C2` [Example 157]: the negative logarithm of the EC50 (pEC50) was 6.90 and the Emax stood at 50%.
The matching figures for `Cc1cccnc1-c1cc2n(n1)CCN(Cc1nn(C)c3ccccc13)C2` [Example 158]: 7.19 and 74%.
For the molecule `Cc1cnc(CN2CCn3nc(-c4ncccc4F)cc3C2)cn1` [Example 159], the pEC50 was 7.04 and the Emax was 64%.
The matching figures for `Fc1ccc(CN2CCn3nc(-c4ncccc4F)cc3C2)nc1` [Example 160]: 6.95 and 53%.
The matching figures for `Cc1cccc(CN2CCn3nc(-c4ncccc4F)cc3C2)n1` [Example 161]: 7.59 and 74%.
As for `Fc1cccnc1-c1cc2n(n1)CCN(Cc1ccc(C(F)(F)F)nc1)C2` [Example 162], the pEC50 was 7.23 and the Emax worked out at 62%.
Taken in the same sequence, the figures for `Fc1cccnc1-c1cc2n(n1)CCN(Cc1ccc(C(F)(F)F)cn1)C2` [Example 163] were 7.26 and 57%.
